Values quoted from earlier work in article PMC3946937 (Pharmaceutical research, 2013).
Where two headings read alike, the source gives them in different places.

Experiments:
Mtb [1] = test system: Mtb
Mtb [2] = conditions: read-out: Mtb Activity in vitro: IC90
Mtb [3] = test system: Mtb; remark: listed apart in the source

O=C(Nc1ccc(F)c(F)c1F)NC1C2CC3CC(C2)CC1C3 (stereo not shown) [AU1235]
Mtb Activity in vitro: MIC (Mtb [1]): MIC 0.1μg/ml

CN1C(=O)[C@]23CC4=CC=C[C@H](O)[C@H]4N2C(=O)[C@@]1(CO)SS3 [Gliotoxin]
IC90 (Mtb [2]): 140 nM

CCCCC1C(=O)N(c2ccccc2)N(c2ccc(O)cc2)C1=O (stereo not shown) [Oxyphenbutazone]
Mtb Activity in vitro: MIC (Mtb [3]): MIC 10μg/ml | Notes: activity in words (Mtb [3]; non-replicating TB): Active against non-replicating TB Metabolite active against replicating TB-screened ~5600 compounds
